This is an account of results in patent US8877759B2, “Aminopyrazines as ATR kinase inhibitors” (Vertex Pharnaceuticals Incorporated, priority 2011, dated 2014).

Structures are written as SMILES.

T1 sequence (Q13535 whole entry): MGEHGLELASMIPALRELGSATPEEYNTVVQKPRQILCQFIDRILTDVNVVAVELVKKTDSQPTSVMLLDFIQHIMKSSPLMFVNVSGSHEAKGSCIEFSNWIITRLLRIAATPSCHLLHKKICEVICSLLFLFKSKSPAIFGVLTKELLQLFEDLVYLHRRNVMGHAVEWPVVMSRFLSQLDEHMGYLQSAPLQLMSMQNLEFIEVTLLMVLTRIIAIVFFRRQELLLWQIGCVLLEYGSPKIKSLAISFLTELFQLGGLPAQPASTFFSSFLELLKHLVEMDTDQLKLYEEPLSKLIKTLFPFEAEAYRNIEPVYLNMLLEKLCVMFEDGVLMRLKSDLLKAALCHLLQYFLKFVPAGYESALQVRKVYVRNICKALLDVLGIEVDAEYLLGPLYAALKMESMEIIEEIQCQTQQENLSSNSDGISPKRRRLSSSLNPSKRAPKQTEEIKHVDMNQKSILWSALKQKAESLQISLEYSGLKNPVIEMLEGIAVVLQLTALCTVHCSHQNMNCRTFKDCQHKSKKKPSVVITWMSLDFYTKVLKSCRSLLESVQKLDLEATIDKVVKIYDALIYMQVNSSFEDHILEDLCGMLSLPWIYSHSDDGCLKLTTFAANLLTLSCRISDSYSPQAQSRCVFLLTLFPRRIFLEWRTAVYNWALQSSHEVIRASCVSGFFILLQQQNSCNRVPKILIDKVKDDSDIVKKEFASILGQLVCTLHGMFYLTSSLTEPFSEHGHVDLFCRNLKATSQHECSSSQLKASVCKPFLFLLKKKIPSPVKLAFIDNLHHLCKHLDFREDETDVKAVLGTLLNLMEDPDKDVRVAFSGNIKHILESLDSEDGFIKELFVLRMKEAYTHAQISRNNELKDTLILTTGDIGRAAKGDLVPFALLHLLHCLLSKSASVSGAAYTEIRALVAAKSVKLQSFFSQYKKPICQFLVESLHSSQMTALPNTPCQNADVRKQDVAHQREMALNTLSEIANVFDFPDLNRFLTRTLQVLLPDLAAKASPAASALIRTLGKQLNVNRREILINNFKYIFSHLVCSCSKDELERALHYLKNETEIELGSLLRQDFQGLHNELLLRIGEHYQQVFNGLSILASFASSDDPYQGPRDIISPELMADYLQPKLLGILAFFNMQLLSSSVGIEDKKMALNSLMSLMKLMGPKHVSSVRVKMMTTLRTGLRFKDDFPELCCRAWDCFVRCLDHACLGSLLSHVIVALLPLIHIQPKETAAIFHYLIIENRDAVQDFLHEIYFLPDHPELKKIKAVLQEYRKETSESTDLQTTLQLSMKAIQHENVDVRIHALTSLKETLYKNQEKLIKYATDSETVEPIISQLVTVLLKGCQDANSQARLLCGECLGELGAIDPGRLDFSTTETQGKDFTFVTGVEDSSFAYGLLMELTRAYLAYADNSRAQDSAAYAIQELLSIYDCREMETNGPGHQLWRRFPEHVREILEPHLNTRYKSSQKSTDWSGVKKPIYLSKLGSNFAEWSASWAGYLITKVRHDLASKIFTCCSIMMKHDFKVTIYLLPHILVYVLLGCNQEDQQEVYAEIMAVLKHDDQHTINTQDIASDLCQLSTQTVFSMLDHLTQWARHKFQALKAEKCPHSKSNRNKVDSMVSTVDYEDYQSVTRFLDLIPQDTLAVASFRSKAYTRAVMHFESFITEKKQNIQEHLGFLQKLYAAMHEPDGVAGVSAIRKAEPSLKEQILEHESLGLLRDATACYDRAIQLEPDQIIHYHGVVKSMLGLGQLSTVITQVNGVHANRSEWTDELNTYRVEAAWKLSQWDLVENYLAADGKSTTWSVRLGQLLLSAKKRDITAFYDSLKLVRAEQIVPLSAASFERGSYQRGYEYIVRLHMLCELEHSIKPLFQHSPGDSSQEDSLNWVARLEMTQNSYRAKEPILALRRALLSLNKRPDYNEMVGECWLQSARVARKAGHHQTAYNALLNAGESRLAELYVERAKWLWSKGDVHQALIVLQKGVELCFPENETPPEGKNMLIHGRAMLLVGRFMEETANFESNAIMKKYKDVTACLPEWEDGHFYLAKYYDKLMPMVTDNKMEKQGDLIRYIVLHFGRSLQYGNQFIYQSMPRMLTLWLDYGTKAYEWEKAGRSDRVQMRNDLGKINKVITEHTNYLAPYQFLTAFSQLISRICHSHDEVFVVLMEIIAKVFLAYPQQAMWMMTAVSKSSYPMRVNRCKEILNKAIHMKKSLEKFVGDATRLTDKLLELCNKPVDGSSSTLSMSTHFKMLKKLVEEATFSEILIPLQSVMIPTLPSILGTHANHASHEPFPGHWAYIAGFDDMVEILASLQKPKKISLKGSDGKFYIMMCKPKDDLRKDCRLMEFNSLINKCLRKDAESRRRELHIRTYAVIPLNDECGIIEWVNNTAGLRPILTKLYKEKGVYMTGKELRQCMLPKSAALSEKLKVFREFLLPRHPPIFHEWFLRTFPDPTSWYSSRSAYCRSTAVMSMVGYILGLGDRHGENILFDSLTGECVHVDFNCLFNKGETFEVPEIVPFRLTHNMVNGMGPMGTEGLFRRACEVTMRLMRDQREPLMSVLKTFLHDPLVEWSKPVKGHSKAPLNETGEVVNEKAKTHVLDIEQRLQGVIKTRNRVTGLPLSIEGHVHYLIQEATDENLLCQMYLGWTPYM

The first assay concerns the target T1, full-length ATR (Homo sapiens, UniProt Q13535).
T1 construct: Assays were carried out at 25° C. in the presence of 5 nM full-length ATR
Put plainly: ATR Inhibition Assay (radioactive-phosphate incorporation). In kind it is biochemical.
Conditions: not given
As for the experimental part:
Compounds were screened for their ability to inhibit ATR kinase using a radioactive-phosphate incorporation assay. Assays were carried out in a mixture of 50 mM Tris/HCl (pH 7.5), 10 mM MgCl2 and 1 mM DTT.
Assays were carried out at 25° C. in the presence of 5 nM full-length ATR. An assay stock buffer solution was prepared containing all of the reagents listed above, with the exception of ATP and the test compound of interest. […] The plate was pre-incubated for 10 minutes at 25° C. and the reaction initiated by addition of 15 μL [γ-33P]ATP (final concentration 10 μM).
The reaction was stopped after […] by the addition of 30 μL 0.1M phosphoric acid containing 2 mM ATP. A multiscreen phosphocellulose filter 96-well plate (Millipore, Cat no. MAPHN0B50) was pretreated with 100 μL 0.2M phosphoric acid prior to the addition of 45 μL of the stopped assay mixture. The plate was washed with 5×200 μL 0.2M phosphoric acid.
After removing mean background values for all of the data points, Ki(app) data were calculated from non-linear regression analysis of the initial rate data using the Prism software package (GraphPad Prism version 3.0cx for Macintosh, GraphPad Software, San Diego Calif., USA).
Turning to `CC(C)(C(=O)NCCO)c1cc(-c2cnc(N)c(-c3cc(-c4ccccc4)no3)n2)ccn1` [Compound I-46, 2-[4-[5-amino-6-(3-phenylisoxazol-5-yl)pyrazin-2-yl]-2-pyridyl]-N-(2-hydroxyethyl)-2-methyl-propanamide], the Ki (usually the dissociation constant of the complex between target and ligand, obtained from inhibition or displacement) is under 1 nM.
Same read-out and setting: the result for `CC(C)(C(=O)N1CCC1)c1cc(-c2cnc(N)c(-c3cc(-c4ccccc4)no3)n2)ccn1` [Compound I-47, 2-[4-[5-amino-6-(3-phenylisoxazol-5-yl)pyrazin-2-yl]-2-pyridyl]-1-(azetidin-1-yl)-2-methyl-propan-1-one] reads 5 to 20 nM; that for `CC(C)(C#N)c1cc(-c2cnc(N)c(-c3cc(-c4ccc(CNC5CC5)cc4)no3)n2)ccn1` [Compound I-48, 2-[4-[5-amino-6-[3-[4-[(cyclopropylamino)methyl]phenyl]isoxazol-5-yl]pyrazin-2-yl]-2-pyridyl]-2-methyl-propanenitrile], under 1 nM.
On the same count and under the same terms, the figure for `CNCc1ccc(-c2cc(-c3nc(-c4ccnc(C(C)C#N)c4)cnc3N)on2)cc1` (stereo not shown) [Compound I-49, 2-[4-[5-amino-6-[3-[4-(methylaminomethyl)phenyl]isoxazol-5-yl]pyrazin-2-yl]-2-pyridyl]propanenitrile] is under 1 nM.
Same read-out and setting: the result for `CC(C#N)c1cc(-c2cnc(N)c(-c3cc(-c4ccccc4)no3)n2)ccn1` (stereo not shown) [Compound I-50, 2-[4-[5-amino-6-(3-phenylisoxazol-5-yl)pyrazin-2-yl]-2-pyridyl]propanenitrile] reads under 1 nM.
On to `CC(C)(C#N)c1cc(-c2cnc(N)c(-c3cc(-c4ccc(O)cc4)no3)n2)ccn1` [Compound I-51, 2-[4-[5-amino-6-[3-(4-hydroxyphenyl)isoxazol-5-yl]pyrazin-2-yl]-2-pyridyl]-2-methyl-propanenitrile], for which the Ki is under 1 nM.
On the same count and under the same terms, the figure for `CC(C)(C#N)c1cc(-c2cnc(N)c(-c3cc(-c4ccc(CNC5CCOCC5)cc4)no3)n2)ccn1` [Compound I-53, 2-(4-(5-amino-6-(3-(4-(((tetrahydro-2H-pyran-4-yl)amino)methyl)phenyl)isoxazol-5-yl)pyrazin-2-yl)pyridin-2-yl)-2-methylpropanenitrile] is under 1 nM.
On the same count and under the same terms, the figure for `CC(C)(C#N)c1cc(-c2cnc(N)c(-c3nnc(-c4ccc5c(c4)CNCC5)o3)n2)ccn1` [Compound I-55] is under 1 nM; for `CN(C)CCOc1ccc(-c2nnc(-c3nc(-c4ccnc(C(C)(C)C#N)c4)cnc3N)o2)cc1` [Compound I-56] it is under 1 nM.
Turning to `CC(C)(C#N)c1cc(-c2cnc(N)c(-c3nnc(-c4ccc(CCN)cc4)o3)n2)ccn1` [Compound I-57], the Ki was under 1 nM.
As to `CC(C)(C#N)c1cc(-c2cnc(N)c(-c3nnc(-c4cccc(C5CNCCN5)c4)o3)n2)ccn1` (stereo not shown) [Compound I-58], the Ki fell in the range of 5 to 20 nM.
Still for that read-out and setting: the figure for `CC(C)(C#N)c1cc(-c2cnc(N)c(-c3cc(-c4ccc(C5COCCN5)cc4)no3)n2)ccn1` (stereo not shown) [Compound I-60] is under 1 nM; for `CC(C)(C#N)c1cc(-c2cnc(N)c(-c3nnc(-c4ccc(N5CCCC(N)C5)cc4)o3)n2)ccn1` (stereo not shown) [Compound I-61] it is under 1 nM.
Turning to `CC(C)(C(=O)NCCN)c1cc(-c2cnc(N)c(-c3cc(-c4ccccc4)no3)n2)ccn1` [Compound I-63], the Ki is under 1 nM.

The same assay, now with this note: Ki(app); 5 nM full-length ATR, 10 μM [γ-33P]ATP, 800 μM target peptide, 25° C.
With `CC(C)(C(N)=O)c1cc(-c2cnc(N)c(-c3cc(-c4ccccc4)no3)n2)ccn1` [Compound I-45, 2-[4-[5-amino-6-(3-phenylisoxazol-5-yl)pyrazin-2-yl]-2-pyridyl]-2-methyl-propanamide], the “ATR Ki” value is on record as “+++ (Compounds with a Ki value >5 nM but ≦1 nM are marked with “+++.”)”.
With `CC(C)(C#N)c1cc(-c2cnc(N)c(-c3nnc(-c4ccc5c(c4)CCNC5)o3)n2)ccn1` [Compound I-52, 2-[4-[5-amino-6-[5-(1,2,3,4-tetrahydroisoquinolin-6-yl)-1,3,4-oxadiazol-2-yl]pyrazin-2-yl]-2-pyridyl]-2-methyl-propanenitrile], the “ATR Ki” value was “+++ (Compounds with a Ki value >5 nM but ≦1 nM are marked with “+++.”)”.
